Source: patent US20110020279A1 (priority 2010, published 2011)
“Also recorded” adds a separate entry of the source.

Columns and labels:
[1] = tested on: activated microglia; conditions: cited from earlier work
[2] = tested on: rabies virus; conditions: cited from earlier work
[3] = tested on: rabies virus; conditions: cited from earlier work; remark: listed apart in the source
[4] = tested on: rabies virus; conditions: rat, in vivo; cited from earlier work
[5] = mouse, in vivo; cited from earlier work
[6] = in vivo; cited from earlier work
[7] = tested on: rabies virus; conditions: cited from earlier work; remark: listed apart in the source
[8] = tested on: rabies virus; conditions: human, in vivo, cited from earlier work
[9] = tested on: rabies virus; conditions: in vivo; cited from earlier work
[10] = human, in vivo
[11] = in vivo, iv; cited from earlier work
[12] = tested on: vesicular stomatitis virus; conditions: cited from earlier work
[13] = tested on: HIV virus; conditions: cited from earlier work
[14] = tested on: herpes simplex virus; conditions: cited from earlier work
[15] = tested on: poliovirus type 1; conditions: cited from earlier work
[16] = tested on: LPS-activated macrophages; conditions: cited from earlier work
[17] = in vivo; cited from earlier work; remark: listed apart in the source
[18] = in vivo; cited from earlier work; remark: listed apart in the source
[19] = in vivo; cited from earlier work; remark: listed apart in the source
[20] = in vivo
[21] = parameters: species or system humans; conditions: human, in vivo
[22] = tested on: MCF-7 human breast cancer cells; conditions: cited from earlier work

Molecule: C[C@]12CC[C@@H]3c4ccc(O)cc4CC[C@H]3[C@@H]1C[C@@H](O)[C@@H]2O [Estriol]
- NO and TNF-alpha production by activated microglia [1]: inhibits

Molecule: C[C@]12N[C@H](Cc3ccccc31)c1ccccc12 [MK-801]
- rabies virus infection in primary neuron cultures [2]: inhibited

Molecule: Oc1ccc(/C=C/c2cc(O)cc(O)c2)cc1 [Resveratol]
- NO and TNF-alpha production by activated microglia [1]: inhibits

Molecule: COc1cc2c(c(OC)c1OC)-c1ccc(OC)c(=O)cc1[C@@H](NC(C)=O)CC2 [colchicine]
- rabies virus transport in neurites [3]: blocked
- day post-infection until which no fluorescent foci could be detected [4]: 3 days

Molecule: C[C@]12CCC(=O)C=C1CC[C@@H]1[C@@H]2[C@@H](O)C[C@@]2(C)[C@H]1CC[C@]2(O)C(=O)CO [cortisol]
- release of TNF-alpha from LPS-treated microglial cells [1]: inhibits

Molecule: COc1cc(/C=C/C(=O)CC(=O)/C=C/c2ccc(O)c(OC)c2)ccc1O [curcumin]
- mRNA and protein levels of inducible nitric oxide synthase (iNOS) [1]: suppresses

Molecule: S [hydrogen sulfide]
- blood pressure [5]: did not significantly decrease
- health consequences afterwards [5]: no negative health consequences
- borderline concentration for eye irritation [6]: 10-20 ppm
- concentration at which olfactory nerve is paralyzed after a few inhalations [6]: 100-150 ppm
- concentration causing immediate collapse with loss of breathing [6]: over 1000 ppm
- concentration causing strong CNS stimulation, rapid breathing, loss of breathing [6]: 530-1000 ppm
- concentration leading to eye damage [6]: 50-100 ppm
- concentration leading to pulmonary edema with possibility of death [6]: 320-530 ppm
- concentration with exposure limit of 8 hours per day [6]: Less than 10 ppm
- lethal concentration for 50% of humans (LC50) [6]: 800 ppm

Molecule: CNC1(c2ccccc2Cl)CCCCC1=O (stereo not shown) [ketamine]
- ketamine therapy of rabies in experimental studies [7]: poor and disappointing
- outcome of rabies therapy with ketamine and induced coma [8]: failed to save the patient's life
- rabies virus infection in primary neuron cultures [2]: inhibited
- reduction in the levels of rabies virus mRNAs relative to untreated neurons [2]: 5- to 11 fold
- viral nucleoprotein and glycoprotein syntheses [2]: inhibited
- rabies virus infection/spread in rat brain [9]: restricted viral spread; also recorded: reduced
- initial cardiovascular effects [10]: tachycardia and elevated blood pressure
- treatment of hiccup [11]: effectively
- replication of vesicular stomatitis virus [12]: doesn't affect replication
- replication of HIV virus [13]: doesn't affect replication
- replication of herpes simplex virus [14]: doesn't affect replication
- replication of poliovirus type 1 [15]: doesn't affect replication

Molecule: CC(=O)[C@H]1CC[C@H]2[C@@H]3CCC4=CC(=O)CC[C@]4(C)[C@H]3CC[C@]12C [progesterone]
- NO and TNF-alpha production by activated microglia [1]: inhibits

Molecule: CC(C)c1cccc(C(C)C)c1O [propofol]
- LPS-induced NO biosynthesis [16]: significantly inhibited
- levels of LPS-enhanced TNF-alpha, IL-1 beta, and IL-6 proteins [16]: significantly reduced
- time to waking when not administered continuously [17]: 5 to 10 min

Molecule: NC(=O)c1ncn([C@@H]2O[C@H](CO)[C@@H](O)[C@H]2O)n1 [ribavirin]
- outcome of antiviral therapy, intravenous ([8]; iv): unsuccessful
- outcome of therapy, combined intravenous and intrathecal administration ([8]; iv): unsuccessful

Molecule: CC[C@]1(O)C[C@@H]2CN(CCc3c([nH]c4ccccc34)[C@@](C(=O)OC)(c3cc4c(cc3OC)N(C)[C@H]3[C@@](O)(C(=O)OC)[C@H](OC(C)=O)[C@]5(CC)C=CCN6CC[C@]43[C@@H]65)C2)C1 [vinblastine]
- rabies virus transport in neurites [3]: blocked

Molecule: NPH (isophane) insulin
- Effective duration of action [18]: 10 to 16 h
- Maximum duration [18]: 14 to 18 h
- Onset of Action [18]: 2 to 4 h
- Peak Action [18]: 6 to 10 h

Molecule: biopterin
- post recovery paresis symptoms [19]: relieved

Molecule: cytochalasin
- rabies virus transport in neurites [3]: blocked

Molecule: insulin
- hypoglycemic effects [20]: did not develop the hypoglycemic effects
- memory, attention, functioning, mood [21]: improves memory, attention, and functioning
- increase of the cytotoxic effect of methotrexate by insulin [22]: up to 10,000 fold

Molecule: insulin aspart
- Effective duration of action [18]: 3 to 4 h
- Maximum duration [18]: 4 to 6 h
- Onset of Action [18]: ¼-½
- Peak Action [18]: ½-1¼

Molecule: insulin detemir
- Effective duration of action [18]: 14 h
- Maximum duration [18]: ~20 h
- Onset of Action [18]: 3 to 4 h
- Peak Action [18]: 6 to 8 h

Molecule: insulin glargine
- Effective duration of action [18]: 18 to 20 h
- Maximum duration [18]: 20 to 24 h
- Onset of Action [18]: 3 to 4 h
- Peak Action [18]: 8 to 16 h

Molecule: insulin glulisine
- Effective duration of action [18]: 3 to 4 h
- Maximum duration [18]: 4 to 6 h
- Onset of Action [18]: ¼-½
- Peak Action [18]: ½-1¼

Molecule: insulin lispro [IInsulin lispro]
- Effective duration of action [18]: 3 to 4 h
- Maximum duration [18]: 4 to 6 h
- Onset of Action [18]: ¼-½
- Peak Action [18]: ½-1¼

Molecule: interferon-Alfa
- outcome of therapy, combined intravenous and intrathecal administration ([8]; iv): unsuccessful

Molecule: regular (soluble) insulin
- Effective duration of action [18]: 3 to 6 h
- Maximum duration [18]: 6 to 8 h
- Onset of Action [18]: ½-1
- Peak Action [18]: 2 to 3 h
